Earlier results as cited in PubChem BioAssay AID1259409 (Chemical Carcinogenesis Research Information System (CCRIS), 2018).

System: rodent chemically induced tumor inhibition, incidence and multiplicity
Assay: CCRIS tumor inhibitor studies
Settings: for tumour outcome (control, treated, inhibition, significance): Promoter: NONE USED

Compound: S=C=NCc1ccccc1
- tumour outcome (control, treated, inhibition, significance) (Carcinogen: 7,12-DIMETHYLBENZ[A]ANTHRACENE, 57-97-6, Dose [Inhibitor]: 50 MG ONCE 4 HR BEFORE DMBA TREATMENT (STUDY DURATION: 18 WK), Route [Inhibitor]: INTRAGASTRIC, Species: RAT, Strain/Sex: SPRAGUE-DAWLEY/FEMALE, Target Tissue: Type of Lesion: MAMMARY GLAND: TUMOR, Dose [Carcinogen]: 12 MG IN 1 ML OLIVE OIL AT AGE 7 WK 4 HR BEFORE AGENT TREATMENT): 100%, 14%, 86%, p<0.001
- tumour outcome (control, treated, inhibition, significance) (Carcinogen: 7,12-DIMETHYLBENZ[A]ANTHRACENE, 57-97-6, Dose [Inhibitor]: 50 MG ONCE 24 HR BEFORE DMBA TREATMENT (STUDY DURATION: 18 WK), Route [Inhibitor]: INTRAGASTRIC, Species: RAT, Strain/Sex: SPRAGUE-DAWLEY/FEMALE, Target Tissue: Type of Lesion: MAMMARY GLAND: TUMOR, Dose [Carcinogen]: 12 MG IN 1 ML OLIVE OIL AT AGE 7 WK 24 HR AFTER AGENT TREATMENT): 93%, 71%, 24%, not significant
- outcome (Carcinogen: BENZO[A]PYRENE, 50-32-8, Dose [Inhibitor]: 0, 5 UMOL IN ACETONE 4 HR PRIOR TO CARCINOGEN DOSE (STUDY DURATION: 20 WK), Route [Inhibitor]: DERMAL, Species: MOUSE, Strain/Sex: STRAIN-A/FEMALE, Target Tissue: Type of Lesion: SKIN: TUMOR, Dose [Carcinogen]: 0.1 UMOL IN ACETONE ONCE, Promoter: 12-O-TETRADECANOYLPHORBOL-13-ACETATE, 16561-29-8): 70%, 60%, 14%, not significant at 15 wk; 95%, 75%, 21%, not significant at 20 wk
- tumour outcome (control, treated, inhibition, significance) (Carcinogen: BENZO[A]PYRENE, 50-32-8, Dose [Inhibitor]: 0, 6.7 UMOL IN COTTONSEED OIL 15 MIN PRIOR TO CARCINOGEN DOSES 1/2 WK FOR 3 TREATMENTS (STUDY DURATION: 26 WK), Route [Inhibitor]: GAVAGE, Species: MOUSE, Strain/Sex: STRAIN-A/FEMALE, Target Tissue: Type of Lesion: FORESTOMACH: TUMOR, Dose [Carcinogen]: 7.9 UMOL IN COTTONSEED OIL 1/2 WK FOR 3 TREATMENTS): 95%, 95%, 0%, not significant
- tumour outcome (control, treated, inhibition, significance) (Carcinogen: BENZO[A]PYRENE, 50-32-8, Dose [Inhibitor]: 0, 6.7 UMOL IN COTTONSEED OIL 15 MIN PRIOR TO CARCINOGEN DOSES 1/2 WK FOR 3 TREATMENTS (STUDY DURATION: 26 WK), Route [Inhibitor]: GAVAGE, Species: MOUSE, Strain/Sex: STRAIN-A/FEMALE, Target Tissue: Type of Lesion: LUNG: TUMOR, Dose [Carcinogen]: 7.9 UMOL IN COTTONSEED OIL 1/2 WK FOR 3 TREATMENTS): 95%, 80%, 16%, not significant
- tumour outcome (control, treated, inhibition, significance) (Carcinogen: BENZO[A]PYRENE, 50-32-8, Dose [Inhibitor]: 5 MG/G DIET AT AGE 9 WK SIMULTANEOUSLY WITH CARCINOGEN, 3/WK FOR 6 WK (STUDY DURATION: 20 WK), Route [Inhibitor]: ORAL, Species: MOUSE, Strain/Sex: ICR/FEMALE, Target Tissue: Type of Lesion: FORESTOMACH: TUMOR, Dose [Carcinogen]: 0.3 MG/G DIET AT AGE 9 WK, 3/WK FOR 6 WK): 41%, 0%, 100%, p<0.01
- tumour outcome (control, treated, inhibition, significance) (Carcinogen: DIETHYLNITROSAMINE, 55-18-5, Dose [Inhibitor]: 0, 100 PPM IN DIET FOR DURATION OF STUDY BEGINNING 1 WK PRIOR TO CARCINOGEN DOSE (STUDY DURATION: 53 WK), Route [Inhibitor]: ORAL, Species: RAT, Strain/Sex: ACI/MALE, Target Tissue: Type of Lesion: LIVER: HEPATOCELLULAR ADENOMA, Dose [Carcinogen]: 200 MG/KG BW ONCE): 10/18 (55%), 1/17 (6%), 89%, p<0.002
- tumour outcome (control, treated, inhibition, significance) (Carcinogen: DIETHYLNITROSAMINE, 55-18-5, Dose [Inhibitor]: 0, 100 PPM IN DIET FOR DURATION OF STUDY BEGINNING 1 WK PRIOR TO CARCINOGEN DOSE (STUDY DURATION: 53 WK), Route [Inhibitor]: ORAL, Species: RAT, Strain/Sex: ACI/MALE, Target Tissue: Type of Lesion: LIVER: HEPATOCELLULAR CARCINOMA, Dose [Carcinogen]: 200 MG/KG BW ONCE): 6/18 (33%), 0/17 (0%), 100%, p<0.02
- tumour outcome (control, treated, inhibition, significance) (Carcinogen: METHYLAZOXYMETHANOL ACETATE, 592-62-1, Dose [Inhibitor]: 0, 400 PPM IN DIET FOR 4 WK BEGINNING 1 WK PRIOR TO CARCINOGEN TREATMENT (STUDY DURATION: 49 WK), Route [Inhibitor]: ORAL, Species: RAT, Strain/Sex: ACI/FEMALE, Target Tissue: Type of Lesion: COLON: ADENOMA OR CARCINOMA, Dose [Carcinogen]: 25 MG/KG BW 1/WK FOR 3 WK): 15/18 (83%), 9/19 (47%), 43%, p<0.05
- tumour outcome (control, treated, inhibition, significance) (Carcinogen: METHYLAZOXYMETHANOL ACETATE, 592-62-1, Dose [Inhibitor]: 0, 400 PPM IN DIET FOR 46 WK BEGINNING 1 WK POST CARCINOGEN TREATMENT (STUDY DURATION: 49 WK), Route [Inhibitor]: ORAL, Species: RAT, Strain/Sex: ACI/FEMALE, Target Tissue: Type of Lesion: COLON: ADENOMA OR CARCINOMA, Dose [Carcinogen]: 25 MG/KG BW 1/WK FOR 3 WK): 15/18 (83%), 17/19 (89%), -7%, not significant
- tumour outcome (control, treated, inhibition, significance) (Carcinogen: METHYLAZOXYMETHANOL ACETATE, 592-62-1, Dose [Inhibitor]: 0, 400 PPM IN DIET FOR 46 WK BEGINNING 1 WK POST CARCINOGEN TREATMENT (STUDY DURATION: 49 WK), Route [Inhibitor]: ORAL, Species: RAT, Strain/Sex: ACI/FEMALE, Target Tissue: Type of Lesion: SMALL INTESTINE: CARCINOMA, Dose [Carcinogen]: 25 MG/KG BW 1/WK FOR 3 WK): 10/18 (56%), 10/19 (53%), 5%, not significant
- tumour outcome (control, treated, inhibition, significance) (Carcinogen: N-BUTYL-N-(4-HYDROXYBUTYL)NITROSAMINE (3817-11-6), Dose [Inhibitor]: 0, 10 PPM IN THE DIET FOR 40 WK (STUDY DURATION: 40 WK), Route [Inhibitor]: ORAL, Species: RAT, Strain/Sex: F344/MALE, Target Tissue: Type of Lesion: URINARY BLADDER: CARCINOMA, Dose [Carcinogen]: 50 PPM IN DRINKING WATER FOR 40 WK): 19/20 (95%), 18/20 (90%), 5%, not significant
- tumour outcome (control, treated, inhibition, significance) (Carcinogen: N-BUTYL-N-(4-HYDROXYBUTYL)NITROSAMINE (3817-11-6), Dose [Inhibitor]: 0, 10 PPM IN THE DIET FOR 40 WK (STUDY DURATION: 40 WK), Route [Inhibitor]: ORAL, Species: RAT, Strain/Sex: F344/MALE, Target Tissue: Type of Lesion: URINARY BLADDER: PAPILLOMA, Dose [Carcinogen]: 50 PPM IN DRINKING WATER FOR 40 WK): 15/20 (75%), 11/20 (55%), 27%, not significant
- tumour outcome (control, treated, inhibition, significance) (Carcinogen: N-BUTYL-N-(4-HYDROXYBUTYL)NITROSAMINE (3817-11-6), Dose [Inhibitor]: 0, 100 PPM IN THE DIET FOR 40 WK (STUDY DURATION: 40 WK), Route [Inhibitor]: ORAL, Species: RAT, Strain/Sex: F344/MALE, Target Tissue: Type of Lesion: URINARY BLADDER: CARCINOMA, Dose [Carcinogen]: 50 PPM IN DRINKING WATER FOR 40 WK): 19/20 (95%), 15/20 (75%), 21%, not significant
- tumour outcome (control, treated, inhibition, significance) (Carcinogen: N-BUTYL-N-(4-HYDROXYBUTYL)NITROSAMINE (3817-11-6), Dose [Inhibitor]: 0, 100 PPM IN THE DIET FOR 40 WK (STUDY DURATION: 40 WK), Route [Inhibitor]: ORAL, Species: RAT, Strain/Sex: F344/MALE, Target Tissue: Type of Lesion: URINARY BLADDER: PAPILLOMA, Dose [Carcinogen]: 50 PPM IN DRINKING WATER FOR 40 WK): 15/20 (75%), 9/20 (45%), 40%, p< 0.05
- tumour outcome (control, treated, inhibition, significance) (Carcinogen: N-BUTYL-N-(4-HYDROXYBUTYL)NITROSAMINE (3817-11-6), Dose [Inhibitor]: 0, 1000 PPM IN THE DIET FOR 40 WK (STUDY DURATION: 40 WK), Route [Inhibitor]: ORAL, Species: RAT, Strain/Sex: F344/MALE, Target Tissue: Type of Lesion: URINARY BLADDER: CARCINOMA, Dose [Carcinogen]: 50 PPM IN DRINKING WATER FOR 40 WK): 19/20 (95%), 5/20 (25%), 74%, p< 0.01
- tumour outcome (control, treated, inhibition, significance) (Carcinogen: N-BUTYL-N-(4-HYDROXYBUTYL)NITROSAMINE (3817-11-6), Dose [Inhibitor]: 0, 1000 PPM IN THE DIET FOR 40 WK (STUDY DURATION: 40 WK), Route [Inhibitor]: ORAL, Species: RAT, Strain/Sex: F344/MALE, Target Tissue: Type of Lesion: URINARY BLADDER: PAPILLOMA, Dose [Carcinogen]: 50 PPM IN DRINKING WATER FOR 40 WK): 15/20 (75%), 2/20 (10%), 87%, p< 0.01
- tumour outcome (control, treated, inhibition, significance) (Carcinogen: N-NITROSOMETHYLBENZYLAMINE, 937-40-6, Dose [Inhibitor]: 0, 0.4 UMOL/G IN DIET FOR 25 WK BEGINNING 2 WK PRIOR TO CARCINOGEN TREATMENT (STUDY DURATION: 25 WK), Route [Inhibitor]: ORAL, Species: RAT, Strain/Sex: F344/MALE, Target Tissue: Type of Lesion: ESOPHAGUS: TUMOR, Dose [Carcinogen]: 0.5 MG/KG BW IN 20% DMSO 1/WK FOR 15 WK): 100%, 100%, 0%, not significant
- tumour outcome (control, treated, inhibition, significance) (Carcinogen: N-NITROSOMETHYLBENZYLAMINE, 937-40-6, Dose [Inhibitor]: 0, 1 UMOL/G IN DIET FOR 25 WK BEGINNING 2 WK PRIOR TO CARCINOGEN TREATMENT (STUDY DURATION: 25 WK), Route [Inhibitor]: ORAL, Species: RAT, Strain/Sex: F344/MALE, Target Tissue: Type of Lesion: ESOPHAGUS: TUMOR, Dose [Carcinogen]: 0.5 MG/KG BW IN 20% DMSO 1/WK FOR 15 WK): 100%, 100%, 0%, not significant
- tumour outcome (control, treated, inhibition, significance) (Carcinogen: N-NITROSOMETHYLBENZYLAMINE, 937-40-6, Dose [Inhibitor]: 0, 2.5 UMOL/G IN DIET FOR 25 WK BEGINNING 2 WK PRIOR TO CARCINOGEN TREATMENT (STUDY DURATION: 25 WK), Route [Inhibitor]: ORAL, Species: RAT, Strain/Sex: F344/MALE, Target Tissue: Type of Lesion: ESOPHAGUS: TUMOR, Dose [Carcinogen]: 0.5 MG/KG BW IN 20% DMSO 1/WK FOR 15 WK): 100%, 100%, 0%, not significant
